Experimental data as given in US9907837B2, “Composition for preventing or treating cachexia” (GemVax & KAEL Co., Ltd., priority 2012, dated 2018).

Test system: TNF-α
Assay: TNF-α ELISA with culture of LPS-stimulated PBMC-derived monocytes
Assay type: cell-based, human
Details: monocytes stimulated with LPS 10 ng/ml 2 hrs, starved 1 hr, 4 uM treated for 2 hrs, cell culture medium
Procedure: PBMC (peripheral blood mononuclear cell) was separated from the blood samples (50 ml) collected from healthy subjects using Ficoll-Paque™ PLUS (GE Healthcare Life Sciences, Piscataway, N.J., USA). PBMCs were then enriched in complete RPMI 1640 medium containing 20% of human serum, followed by transferring to 100 mm polystyrene cell culture plate coated with human serum for 30 mins. […]
To investigate the effect of PEP-1 on TNF-α level in terms of protein expression level, ELISA (enzyme linked immunosorbent assay) was performed. […] After culturing, cell soup was collected, and the amount of TNF-α was measured using ELISA kit (R&D, Minneapolis, Minn., USA) as follows.
TNF measurement uses sandwich ELISA method. […] Again, plate was washed, and avidin/biotin was added for measuring the absorbance. TNF-α level of each sample was quantified using the standard graph calculated from the absorbance of standard solution.
PBMC-derived monocytes were stimulated with endotoxin LPS (10 ng/ml) for 2 hrs, starved for 1 hr using OPTI-MEM, and then 4 uM of FITC, FITC-TAT, PEP 1-FITC and FITC-PEP 1 were treated for 2 hrs. After incubation, TNF-α level was measured with cell culture medium using ELISA.

## Fluorescein Isothiocyanate [FITC]
  TNF-α level: 6.2 ng/mL
